This test concerns the target T1, recombinant human 5-HT5A receptor (Homo sapiens, UniProt P47898).
T1 construct: expressed in transfected cells; host or cells: HEK-EBNA (Human Embryonic Kidney-EBNA) cells, transient cDNA expression; membranes
Kind of test: [3H]LSD radioligand binding assay. The settings on record: [3H]LSD (approximately 1 nM); membranes from transiently expressed 5-HT5A receptors in HEK-EBNA cells; Ki from IC50 by Cheng-Prussoff equation. How it is done: A [^3H]LSD radioligand binding assay was used to determine the affinity of the compounds for the recombinant human 5-HT5A receptor, in membranes from transiently (cDNA) expressed 5-HT5A receptors in Human Embryonic Kidney-EBNA (HEK-EBNA) cells. Assay buffer consisted of Tris (50 mM) buffer containing 1 mM EGTA, 10 mM MgCl2 (pH 7.4) and 10 μM pargyline. The binding assay was carried out in 96-well-plates in the presence of [^3H]LSD (approximately 1 nM), approximately 2 μg/well of membrane protein, and 0.5 mg of Ysi-poly-1-lysine SPA beads in a final volume of 200 μl of buffer. Non-specific binding was defined using methiothepin 2 μM. Compounds were tested at 10 concentrations. All assays were conducted in duplicate and repeated at least two times. Assay plates were incubated for 120 min at room temperature before centrifugation. Bound ligand was determined using a Packard Topcount scintillation counter. IC50 values were calculated using a non-linear curve fitting program and Ki values calculated using the Cheng-Prussoff equation.
T1 sequence (P47898 whole entry): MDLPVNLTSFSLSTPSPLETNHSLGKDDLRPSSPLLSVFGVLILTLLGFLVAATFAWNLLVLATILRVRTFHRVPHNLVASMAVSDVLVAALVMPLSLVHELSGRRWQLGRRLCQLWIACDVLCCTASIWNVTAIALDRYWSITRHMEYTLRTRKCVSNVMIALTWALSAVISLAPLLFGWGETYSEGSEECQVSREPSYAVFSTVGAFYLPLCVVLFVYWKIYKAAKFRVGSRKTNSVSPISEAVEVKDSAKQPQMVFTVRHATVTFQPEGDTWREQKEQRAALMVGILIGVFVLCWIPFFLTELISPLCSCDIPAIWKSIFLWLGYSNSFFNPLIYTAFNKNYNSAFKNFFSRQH
On to `CC(C)NC(=O)Nc1ccc2nc(NC3CCc4cc(F)ccc43)ccc2c1` (racemic) [Example 107, rac-1-[2-(5-Fluoro-indan-1-ylamino)-quinolin-6-yl]-3-isopropyl-urea], for which the Ki (usually a dissociation constant, usually derived from enzyme kinetics or from competition with a known ligand) came to 4.4 nM.

For `CNC(=O)Nc1ccc2nc(N[C@@H]3CCc4ccccc43)ccc2c1` [Example 7, 1-[2-((R)-Indan-1-ylamino)-quinolin-6-yl]-3-methyl-urea], the Ki turned out to be 3.4 nM.

On to `COc1cccc2c1C(Nc1ccc3cc(NC(=O)NC4CCN(C(C)C)CC4)ccc3n1)CC2` (racemic) [Example 44, rac-1-(1-Isopropyl-piperidin-4-yl)-3-[2-(7-methoxy-indan-1-ylamino)-quinolin-6-yl]-urea], for which the Ki worked out at 3 nM.

In the case of `CC(C)N1[C@@H]2CC[C@H]1C[C@H](NC(=O)Nc1ccc3nc(N[C@@H]4CCc5ccccc54)ccc3c1)C2` [Example 170, 1-[2-((R)-Indan-1-ylamino)-quinolin-6-yl]-3-((3-exo)-8-isopropyl-8-aza-bicyclo[3.2.1]oct-3-yl)-urea], the Ki came out at 7.1 nM.

With `COc1cccc2c1C(Nc1ccc3cc(NC(=O)NC4CCN(CCF)CC4)ccc3n1)CC2` (racemic) [Example 46, rac-1-[1-(2-Fluoro-ethyl)-piperidin-4-yl]-3-[2-(7-methoxy-indan-1-ylamino)-quinolin-6-yl]-urea], the Ki turned out to be 2.7 nM.

Take `COc1cccc2c1C(Nc1ccc3cc(NC(=O)NC4CCN(CCSC)CC4)ccc3n1)CC2` (racemic) [Example 51, rac-1-[2-(7-Methoxy-indan-1-ylamino)-quinolin-6-yl]-3-[1-(2-methylsulfanyl-ethyl)-piperidin-4-yl]-urea]: the Ki was 3.9 nM.

Turning to `CC(C)N1CCC(NC(=O)Nc2ccc3nc(NC4CCc5cc(F)ccc54)ccc3c2)CC1` (racemic) [Example 115, rac-1-[2-(5-Fluoro-indan-1-ylamino)-quinolin-6-yl]-3-(1-isopropyl-piperidin-4-yl)-urea], the Ki was determined as 4 nM.

On to `O=S(=O)(Nc1ccc2nc(N[C@@H]3CCc4ccccc43)ccc2c1)N1CCC2(CC1)OCCO2` [Example 82, 1,4-Dioxa-8-aza-spiro[4.5]decane-8-sulfonic acid [2-((R)-indan-1-ylamino)-quinolin-6-yl]-amide], for which the Ki amounted to 22.2 nM.

Turning to `O=C(Nc1ccc2nc(N[C@@H]3CCc4ccccc43)ccc2c1)NC1CCN(CCC(F)(F)F)CC1` [Example 63, 1-[2-((R)-Indan-1-ylamino)-quinolin-6-yl]-3-[1-(3,3,3-trifluoro-propyl)-piperidin-4-yl]-urea], the Ki was found to be 10.4 nM.

Consider `CCOc1cccc2c1C(Nc1ccc3cc(NC(=O)NC4CCN(C(C)C)CC4)ccc3n1)CO2` (racemic) [Example 181, rac-1-[2-(4-Ethoxy-2,3-dihydro-benzofuran-3-ylamino)-quinolin-6-yl]-3-(1-isopropyl-piperidin-4-yl)-urea], for which the Ki stood at 4.1 nM.

Turning to `COc1cccc2c1C(Nc1ccc3cc(NC(=O)N(C)C4CCN(C(C)C)CC4)ccc3n1)CC2` (racemic) [Example 179, rac-1-(1-Isopropyl-piperidin-4-yl)-3-[2-(7-methoxy-indan-1-ylamino)-quinolin-6-yl]-1-methyl-urea], the Ki came out at 7.1 nM.

Turning to `COc1cc(C)cc2c1C(Nc1ccc3cc(NC(=O)NC(C)C)ccc3n1)CC2` (racemic) [Example 130, rac-1-Isopropyl-3-[2-(7-methoxy-5-methyl-indan-1-ylamino)-quinolin-6-yl]-urea], the Ki was found to be 3.4 nM.

Regarding `N#CCN1CCC(NC(=O)Nc2ccc3nc(N[C@@H]4CCc5ccccc54)ccc3c2)CC1` [Example 133, 1-(1-Cyanomethyl-piperidin-4-yl)-3-[2-((R)-indan-1-ylamino)-quinolin-6-yl]-urea], the Ki worked out at 4.2 nM.

As to `O=C(Nc1ccc2nc(N[C@@H]3CCc4ccccc43)ccc2c1)NC1CCN(CCF)CC1` [Example 97, 1-[1-(2-Fluoro-ethyl)-piperidin-4-yl]-3-[2-((R)-indan-1-ylamino)-quinolin-6-yl]-urea], the Ki is 2.9 nM.

For `O=C(Nc1ccc2nc(N[C@@H]3CCc4ccccc43)ccc2c1)N[C@@H]1C[C@H]2CCC[C@@H](C1)N2C1CC1` [Example 110, 1-((3-exo)-9-Cyclopropyl-9-aza-bicyclo[3.3.1]non-3-yl)-3-[2-((R)-indan-1-ylamino)-quinolin-6-yl]-urea], the Ki came out at 7.2 nM.

In the case of `COc1cccc2c1C(Nc1ccc3cc(NC(=O)NC4CCN(C5CC5)CC4)ccc3n1)CC2` (racemic) [Example 53, rac-1-(1-Cyclopropyl-piperidin-4-yl)-3-[2-(7-methoxy-indan-1-ylamino)-quinolin-6-yl]-urea], the Ki is 3.1 nM.

In the case of `O=C(Nc1ccc2nc(N[C@@H]3CCc4ccccc43)ccc2c1)NC1CC1` [Example 21, 1-Cyclopropyl-3-[2-((R)-indan-1-ylamino)-quinolin-6-yl]-urea], the Ki was 3.9 nM.

In the case of `CN(C)CCNC(=O)Nc1ccc2nc(N[C@@H]3CCc4ccccc43)ccc2c1` [Example 18, 1-(2-Dimethylamino-ethyl)-3-[2-((R)-indan-1-ylamino)-quinolin-6-yl]-urea], the Ki was determined as 7.3 nM.

As to `CN(CCNC(=O)Nc1ccc2nc(N[C@@H]3CCc4ccccc43)ccc2c1)C1CC1` [Example 32, 1-[2-(Cyclopropyl-methyl-amino)-ethyl]-3-[2-((R)-indan-1-ylamino)-quinolin-6-yl]-urea], the Ki amounted to 8.2 nM.

(Values after patent US8183380B2, “2-aminoquinolines” (Hoffmann-La Roche Inc., priority 2008, dated 2012).)
